Assay [1] addresses EGFR-wt (MDA-MB-231 or MCF7 or A549 or OVCAR8) (Homo sapiens (Human), UniProt P00533). The experiment in a line: EGFR protein degradation assay (Western blot). Format: cell-based. The settings on record: 72 hours, 300 nM to 10 nM. The essentials:
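Cells carrying the relevant EGFR form were plated at 300,000 per well in 6-well plates and left overnight to attach. For harvest, cells were rinsed once in ice-cold PBS and lysed in 400 μl lysis buffer containing protease inhibitors. Lysates were cleared at 10 000 rpm for 10 minutes and their protein content measured by BCA. Then 10 μg per sample was separated by SDS/PAGE at 165V for 2 hours, and EGFR was detected by ECL on a Chemidoc.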

The target in assay [2] is EGFR L858R/T790M double mutant (H1975) (Homo sapiens (Human), UniProt P00533, L858R/T790M). Put plainly: EGFR protein degradation assay (Western blot). Format: cell-based. The following applies: 72 hours, 300 nM to 10 nM. The essentials:
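Cells carrying the relevant EGFR form were plated at 300,000 cells per well in 6-well plates and left to attach overnight. After washing in ice-cold PBS, cells were lysed in 400 μl lysis buffer with protease inhibitors, scraped, and clarified at 10 000 rpm for 10 minutes. EGFR levels were then assessed by Western blot with tubulin as loading control.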

Assay [3] deals with EGFR L858R/T790M/C797S triple mutant (H520*) (Homo sapiens (Human), UniProt P00533, C797S/L858R/T790M). The experiment in a line: EGFR protein degradation assay (Western blot). Format: cell-based. The following applies: 72 hours, 300 nM to 10 nM. The procedure, abridged:
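EGFR loss in the triple-mutant line measured by immunoblot: clarified lysates normalised by BCA, run on 4-12% Bis-Tris gels, blotted to PVDF, probed with HRP anti-rabbit secondary. Before lysis, cells were dosed from 1, 0.3, 0.1, 0.03 and 0.01 mM DMSO stocks (not final concentrations) after overnight culture at 37° C.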

The next assay has as its target EGFR Exon20NPG (Homo sapiens (Human), UniProt P00533, INS770NPG). Put plainly: TR-FRET assay for ERBB kinases. Format: biochemical. The settings on record: geometric mean if measured more than once. The procedure, abridged:
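Compounds pre-incubated 10 min with kinase in HEPES pH 7.5 buffer (MgCl2, DTT, Pluronic), then reaction started with substrate mix (3 mM ATP, 30 µM fluorescein-poly-GluTyr, stock levels) for 10 min at room temperature. EDTA-quenched, detected by Tb-pY20 antibody TR-FRET (520/490 nm emission).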

The target of a further assay is EGFR WT (Homo sapiens (Human), UniProt P00533). The experiment in a line: TR-FRET assay for ERBB kinases. Format: biochemical. The settings on record: geometric mean if measured more than once. The procedure, abridged:
(§1)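 Phosphotyrosine on fluorescein poly-GluTyr was detected by Tb-pY20 antibody after EDTA quench, reading emission at 520 and 490 nm. The kinase was exposed to compound for 10 min before an ATP-containing substrate mix (3 mM ATP as added) was introduced. Turnover lasted 10 min at room temperature.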
On the technique in general: Time-resolved FRET reads energy transfer from a long-lived donor to a nearby acceptor.

A further assay addresses EGFR L858R/T790M (Homo sapiens (Human), UniProt P00533, L858R/T790M). Put plainly: TR-FRET assay for ERBB kinases. Type of assay: biochemical. The settings on record: geometric mean if measured more than once. The essentials:
as §1

In the next assay the target is EGFR L858R/T790M/C797S (Homo sapiens (Human), UniProt P00533, C797S/L858R/T790M). The experiment in a line: TR-FRET assay for ERBB kinases. Type of assay: biochemical. The following applies: geometric mean if measured more than once. The essentials: as §1
EGFR L858R/T790M/C797S, sequence (P00533 25-1210 T790M/C797S/L858R): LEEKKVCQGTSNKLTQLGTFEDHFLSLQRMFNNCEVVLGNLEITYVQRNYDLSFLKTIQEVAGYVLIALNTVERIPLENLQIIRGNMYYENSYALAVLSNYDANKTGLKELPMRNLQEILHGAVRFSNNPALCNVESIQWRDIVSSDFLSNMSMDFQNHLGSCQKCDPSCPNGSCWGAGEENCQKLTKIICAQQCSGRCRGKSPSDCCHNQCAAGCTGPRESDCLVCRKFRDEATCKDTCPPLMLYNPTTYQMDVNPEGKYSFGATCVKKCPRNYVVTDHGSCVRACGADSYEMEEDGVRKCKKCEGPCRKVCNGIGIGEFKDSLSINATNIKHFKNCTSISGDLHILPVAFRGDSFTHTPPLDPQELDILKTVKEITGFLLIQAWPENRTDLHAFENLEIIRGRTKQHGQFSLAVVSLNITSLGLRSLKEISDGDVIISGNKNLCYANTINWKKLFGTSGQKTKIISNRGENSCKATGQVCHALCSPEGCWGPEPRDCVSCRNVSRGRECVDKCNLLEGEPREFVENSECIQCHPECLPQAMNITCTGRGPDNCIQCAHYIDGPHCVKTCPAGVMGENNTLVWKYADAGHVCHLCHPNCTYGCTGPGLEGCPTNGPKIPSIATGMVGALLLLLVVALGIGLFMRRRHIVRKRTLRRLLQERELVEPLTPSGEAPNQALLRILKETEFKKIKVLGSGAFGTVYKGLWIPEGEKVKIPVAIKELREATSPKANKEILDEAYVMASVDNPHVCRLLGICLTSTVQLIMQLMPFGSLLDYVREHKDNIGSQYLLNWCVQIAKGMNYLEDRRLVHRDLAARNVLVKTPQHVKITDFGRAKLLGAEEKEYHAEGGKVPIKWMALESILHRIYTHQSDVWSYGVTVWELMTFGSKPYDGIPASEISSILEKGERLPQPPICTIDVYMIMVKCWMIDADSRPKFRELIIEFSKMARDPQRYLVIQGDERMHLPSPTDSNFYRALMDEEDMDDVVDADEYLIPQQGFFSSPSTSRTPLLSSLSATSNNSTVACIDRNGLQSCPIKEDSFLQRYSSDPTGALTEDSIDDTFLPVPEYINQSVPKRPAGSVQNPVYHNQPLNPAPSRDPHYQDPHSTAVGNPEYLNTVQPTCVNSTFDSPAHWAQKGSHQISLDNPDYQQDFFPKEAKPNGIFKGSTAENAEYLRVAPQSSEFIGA

By IC50 is commonly meant the midpoint of a concentration-inhibition curve.

EGFR Exon20NPG, sequence (P00533 other isoform, or with tags, fused parts or gaps del 1-694/ins NPG behind 770 limits assumed): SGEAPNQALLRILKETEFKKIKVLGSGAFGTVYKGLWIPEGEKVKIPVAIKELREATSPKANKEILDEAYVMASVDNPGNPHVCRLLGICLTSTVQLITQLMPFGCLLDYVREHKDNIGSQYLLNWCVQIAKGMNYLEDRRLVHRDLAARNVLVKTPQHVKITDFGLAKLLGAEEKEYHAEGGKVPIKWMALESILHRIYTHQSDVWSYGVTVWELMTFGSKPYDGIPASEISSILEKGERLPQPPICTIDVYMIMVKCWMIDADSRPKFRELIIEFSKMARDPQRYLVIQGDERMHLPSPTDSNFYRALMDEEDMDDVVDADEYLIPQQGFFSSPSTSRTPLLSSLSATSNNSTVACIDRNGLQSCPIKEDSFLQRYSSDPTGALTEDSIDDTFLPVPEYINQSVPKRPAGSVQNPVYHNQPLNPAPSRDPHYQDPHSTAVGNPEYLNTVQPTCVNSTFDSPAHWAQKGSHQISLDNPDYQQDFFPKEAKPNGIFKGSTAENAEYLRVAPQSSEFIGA
EGFR L858R/T790M/C797S triple mutant (H520*), sequence (P00533 25-1210 T790M/C797S/L858R): as the sequence (P00533 25-1210 T790M/C797S/L858R) above
EGFR WT, sequence (P00533 25-1210): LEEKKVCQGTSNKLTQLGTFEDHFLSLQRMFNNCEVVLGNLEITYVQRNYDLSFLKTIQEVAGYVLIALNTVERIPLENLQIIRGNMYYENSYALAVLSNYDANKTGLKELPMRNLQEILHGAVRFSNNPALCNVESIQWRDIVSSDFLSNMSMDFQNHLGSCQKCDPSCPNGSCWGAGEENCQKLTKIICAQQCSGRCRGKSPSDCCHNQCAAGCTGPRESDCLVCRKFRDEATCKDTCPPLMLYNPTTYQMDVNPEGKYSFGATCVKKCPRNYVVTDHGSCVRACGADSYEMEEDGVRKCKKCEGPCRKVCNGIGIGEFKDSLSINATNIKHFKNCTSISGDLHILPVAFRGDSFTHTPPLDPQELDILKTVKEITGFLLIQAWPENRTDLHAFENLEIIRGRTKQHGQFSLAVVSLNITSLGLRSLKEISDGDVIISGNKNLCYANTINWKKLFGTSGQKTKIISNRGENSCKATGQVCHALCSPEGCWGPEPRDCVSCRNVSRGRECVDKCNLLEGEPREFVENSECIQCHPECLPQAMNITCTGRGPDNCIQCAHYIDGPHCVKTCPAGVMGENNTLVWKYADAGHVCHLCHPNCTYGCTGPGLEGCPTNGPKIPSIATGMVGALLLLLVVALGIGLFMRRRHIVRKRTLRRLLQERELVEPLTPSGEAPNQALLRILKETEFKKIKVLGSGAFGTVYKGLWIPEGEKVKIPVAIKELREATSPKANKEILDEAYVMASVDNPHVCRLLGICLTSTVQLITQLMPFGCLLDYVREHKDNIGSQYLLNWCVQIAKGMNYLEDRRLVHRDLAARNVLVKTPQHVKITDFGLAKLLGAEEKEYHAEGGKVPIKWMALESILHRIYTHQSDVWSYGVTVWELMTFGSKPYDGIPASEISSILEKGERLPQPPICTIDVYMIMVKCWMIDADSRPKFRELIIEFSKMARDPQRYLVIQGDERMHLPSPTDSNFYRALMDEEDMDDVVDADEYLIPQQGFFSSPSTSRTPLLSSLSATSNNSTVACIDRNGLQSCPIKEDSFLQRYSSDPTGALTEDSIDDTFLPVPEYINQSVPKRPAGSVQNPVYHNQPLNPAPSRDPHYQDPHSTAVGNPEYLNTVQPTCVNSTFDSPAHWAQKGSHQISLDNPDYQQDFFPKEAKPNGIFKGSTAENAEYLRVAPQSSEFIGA

On to `Cc1ncsc1-c1ccc(CNC(=O)[C@@H]2C[C@@H](O)CN2C(=O)[C@@H](NC(=O)COCCOCCOCCOCCOCc2ccc(-c3ccc4ncnc(Nc5ccc(OCc6cccc(F)c6)c(Cl)c5)c4c3)o2)C(C)(C)C)cc1` [Example 320, (2S,4R)-1-((S)-18-(tert-butyl)-1-(5-(4-((3-chloro-4-((3-fluorobenzyl)oxy)phenyl)amino)quinazolin-6-yl)furan-2-yl)-16-oxo-2,5,8,11,14-pentaoxa-17-azanonadecan-19-oyl)-4-hydroxy-N-(4-(4-methylthiazol-5-yl)benzyl)pyrrolidine-2-carboxamide], for which the “EGFR protein remaining, EGFR-wt” value in assay [1] is “A (≤50% EGFR protein remaining after 72 hours of incubation with the test compound at a concentration between 300 nM and 10 nM)”.
Same read-out and setting: to `Cc1ncsc1-c1ccc(CNC(=O)[C@@H]2C[C@H](O)CN2C(=O)[C@@H](NC(=O)COCCOCCOCCOc2ccc(-c3ccc4ncnc(Nc5ccc(OCc6cccc(F)c6)c(Cl)c5)c4c3)cc2)C(C)(C)C)cc1` [Example 100, (2S,4S)-1-((S)-2-(tert-Butyl)-14-(4-(4-((3-chloro-4-((3-fluorobenzyl)oxy)phenyl)amino)quinazolin-6-yl)phenoxy)-4-oxo-6,9,12-trioxa-3-azatetradecanoyl)-4-hydroxy-N-(4-(4-methylthiazol-5-yl)benzyl)pyrrolidine-2-carboxamide] belongs “C (>80% EGFR protein remaining after 72 hours of incubation with the test compound at a concentration of 300 nM)”; to `Cc1ncsc1-c1ccc(CNC(=O)[C@@H]2C[C@@H](O)CN2C(=O)[C@@H](NC(=O)COCCOCCOCCOc2ccc(-c3ccc4ncnc(Nc5ccc(OCc6cccc(F)c6)c(Cl)c5)c4c3)cc2)C(C)(C)C)cc1` [Example 99, (2S,4R)-1-((S)-2-(tert-Butyl)-14-(4-(4-((3-chloro-4-((3-fluorobenzyl)oxy)phenyl)amino)quinazolin-6-yl)phenoxy)-4-oxo-6,9,12-trioxa-3-azatetradecanoyl)-4-hydroxy-N-(4-(4-methylthiazol-5-yl)benzyl)pyrrolidine-2-carboxamide], “A (≤50% EGFR protein remaining after 72 hours of incubation with the test compound at a concentration between 300 nM and 10 nM)”.
For `Cc1ncsc1-c1ccc(CNC(=O)[C@@H]2C[C@@H](O)CN2C(=O)[C@@H](NC(=O)COCCOCCOCCOCC#Cc2cccc3c2C(=O)N(C(C(=O)Nc2nccs2)c2cc(F)ccc2O)C3)C(C)(C)C)cc1` (some centres unmarked) [compound 254], the “EGFR protein remaining, EGFR L858R/T790M double mutant” value in assay [2] is given as “C (>80% EGFR protein remaining after 72 hours of incubation with the test compound at a concentration of 300 nM)”. The “EGFR protein remaining, EGFR L858R/T790M/C797S triple mutant” value in assay [3] is “C (>80% EGFR protein remaining after 72 hours of incubation with the test compound at a concentration of 300 nM)”. The IC50 on EGFR Exon20NPG amounted to 5.7 µM; on EGFR WT it was 1.1 µM; at EGFR L858R/T790M it was 1 µM; at EGFR L858R/T790M/C797S, 0.1 µM.
`O=C1CCC(N2C(=O)c3ccc(N4CCN(CCCOCCCC#Cc5cccc6c5C(=O)N(C(C(=O)Nc5nccs5)c5cc(F)ccc5O)C6)CC4)cc3C2=O)C(=O)N1` (centres unmarked) [compound 95]: the “EGFR protein remaining, EGFR L858R/T790M double mutant” value in assay [2] is “C (>80% EGFR protein remaining after 72 hours of incubation with the test compound at a concentration of 300 nM)”. Further, the “EGFR protein remaining, EGFR L858R/T790M/C797S triple mutant” value in assay [3] was “C (>80% EGFR protein remaining after 72 hours of incubation with the test compound at a concentration of 300 nM)”. Also, the IC50 is 3.3 µM at EGFR Exon20NPG, 4.2 µM on EGFR WT, 6.7 µM at EGFR L858R/T790M and 2.2 µM at EGFR L858R/T790M/C797S.
As to `Cc1ncsc1-c1ccc(CNC(=O)[C@H]2C[C@H](O)CN2C(=O)[C@@H](NC(=O)COCCOCCOc2ccc(-c3ccc4ncnc(Nc5ccc(OCc6cccc(F)c6)c(Cl)c5)c4c3)cc2)C(C)(C)C)cc1` [Example 98, (2R,4S)-1-((S)-2-(2-(2-(2-(4-(4-((3-Chloro-4-((3-fluorobenzyl)oxy)phenyl)amino)quinazolin-6-yl)phenoxy)ethoxy)ethoxy)acetamido)-3,3-dimethylbutanoyl)-4-hydroxy-N-(4-(4-methylthiazol-5-yl)benzyl)pyrrolidine-2-carboxamide], the “EGFR protein remaining, EGFR-wt” value in assay [1] was “C (>80% EGFR protein remaining after 72 hours of incubation with the test compound at a concentration of 300 nM)”.
With `Cc1ncsc1-c1ccc(CNC(=O)[C@@H]2C[C@@H](O)CN2C(=O)[C@@H](NC(=O)COCCOCCOCCOCCOCC#Cc2cccc3c2C(=O)N(C(C(=O)Nc2nccs2)c2cc(F)ccc2O)C3)C(C)(C)C)cc1` (some centres unmarked) [compound 255], the “EGFR protein remaining, EGFR L858R/T790M double mutant” value in assay [2] was “C (>80% EGFR protein remaining after 72 hours of incubation with the test compound at a concentration of 300 nM)”. The “EGFR protein remaining, EGFR L858R/T790M/C797S triple mutant” value in assay [3] was “B (≤80% and >50% EGFR protein remaining after 72 hours of incubation with the test compound at a concentration between 300 nM and 10 nM)”. Besides, the IC50 is 4.7 µM on EGFR Exon20NPG, 0.58 µM at EGFR WT, 0.83 µM on EGFR L858R/T790M and 0.14 µM on EGFR L858R/T790M/C797S.
Turning to `COc1cc2c(Oc3ccc(N(C(=O)C4(C(N)=O)CC4)c4ccc(F)cc4)cc3F)ccnc2cc1OCCCOCCCOCCC(=O)N[C@H](C(=O)N1C[C@@H](O)C[C@H]1C(=O)NCc1ccc(-c2scnc2C)cc1)C(C)(C)C` [Example 351, N-(3-Fluoro-4-((7-(3-(3-(3-(((S)-1-((2S,4S)-4-hydroxy-2-((4-(4-methylthiazol-5-yl)benzyl)carbamoyl)-pyrrolidin-1-yl)-3,3-dimethyl-1-oxobutan-2-yl)amino)-3-oxopropoxy)propoxy)propoxy)-6-methoxyquinolin-4-yl)oxy)phenyl)-N-(4-fluorophenyl)cyclopropane-1,1-dicarboxamide], the “EGFR protein remaining, EGFR-wt” value in assay [1] is recorded as “C (>80% EGFR protein remaining after 72 hours of incubation with the test compound at a concentration of 300 nM)”.
For the molecule `COC1CCN(c2nccc(Nc3cc4c(cn3)nc(COCCOCCN3CCN(CCCCc5ccc6c(c5)C(=O)N(C5CCC(=O)NC5=O)C6=O)CC3)n4C(C)C)n2)CC1` (centres unmarked) [compound 87], the “EGFR protein remaining, EGFR L858R/T790M double mutant” value in assay [2] is “C (>80% EGFR protein remaining after 72 hours of incubation with the test compound at a concentration of 300 nM)”. For the same molecule, the “EGFR protein remaining, EGFR L858R/T790M/C797S triple mutant” value in assay [3] was “C (>80% EGFR protein remaining after 72 hours of incubation with the test compound at a concentration of 300 nM)”. Also, the IC50 at EGFR Exon20NPG is 14 µM; at EGFR WT, over 30 µM; at EGFR L858R/T790M, 15 µM; at EGFR L858R/T790M/C797S it was 3.3 µM.
On to `O=C1CCC(N2C(=O)c3cccc(NCCOCCOCCOCC#Cc4cccc5c4C(=O)N([C@@H](C(=O)Nc4nccs4)c4cc(F)ccc4O)C5)c3C2=O)C(=O)N1` (some centres unmarked) [compound 265], for which, in assay [2], the “EGFR protein remaining, EGFR L858R/T790M double mutant” value is “C (>80% EGFR protein remaining after 72 hours of incubation with the test compound at a concentration of 300 nM)”. In addition, the “EGFR protein remaining, EGFR L858R/T790M/C797S triple mutant” value in assay [3] is recorded as “C (>80% EGFR protein remaining after 72 hours of incubation with the test compound at a concentration of 300 nM)”. Besides, the IC50 was 20 µM at EGFR Exon20NPG, 3.6 µM on EGFR WT, 27 µM at EGFR L858R/T790M and 0.29 µM at EGFR L858R/T790M/C797S.
Take `O=C1CCC(N2C(=O)c3ccc(OCCOCCOCCOCCOCC#Cc4cccc5c4C(=O)N([C@@H](C(=O)Nc4nccs4)c4cc(F)ccc4O)C5)cc3C2=O)C(=O)N1` (some centres unmarked) [compound 262]: the “EGFR protein remaining, EGFR L858R/T790M double mutant” value in assay [2] is “C (>80% EGFR protein remaining after 72 hours of incubation with the test compound at a concentration of 300 nM)”. Further, the “EGFR protein remaining, EGFR L858R/T790M/C797S triple mutant” value in assay [3] is “C (>80% EGFR protein remaining after 72 hours of incubation with the test compound at a concentration of 300 nM)”. The IC50 at EGFR Exon20NPG came out at 7.4 µM; at EGFR WT it was 3.7 µM; on EGFR L858R/T790M, 0.43 µM; on EGFR L858R/T790M/C797S, 0.25 µM.

These data come from patent US10994015B2, “EGFR proteolysis targeting chimeric molecules and associated methods of use” (Arvinas Operations, Inc., priority 2016, dated 2021).
